Entries after “also recorded” stand apart in the source; their conditions may differ.
Key:
p42/44^MAPK [1] = test: Immunoblot of phospho-p42/44MAPK in HepG2 cells; format: cell-based, human; details: SB202190 2.5 μM
Description: (§1) 2×10^5 cells were grown and treated as described in FIG. 1. After the indicated times, equal amounts of cell lysates were blotted with anti-phospho-p42/44^MAPK antibody, phosphorylation-independent p42/44^MAPK antibody, anti-phospho p46/54^JNK antibody, anti-phospho-MEK-1/2, or phosphorylation-independent MKP-1.
HepG2 cells were cultured in the absence or presence of 1 μM staurosporine or 5 μM PD98059 for 30 min. SB202190 (2.5 μM) was then added to the cells for 4 h, cell lysate was subjected to immunoblotting to measure the phosphorylation levels of p42/44^MAPK and MEK-1/2.
Human hepatoma cell line HepG2 and its derivative HepG2-ΔRaf-1:ER cell line that stably expresses the ΔRaf-1:ER chimera were maintained as monolayer cultures in a humidified 5% CO2 atmosphere at 37° C. in Eagle's minimum essential medium (EMEM) (Bio Whittaker, Md.) supplemented with 10% fetal bovine serum (FBS) (Life Technologies Inc.), 2 mM L-glutamine, 20 units/ml penicillin and 20 μg/ml streptomycin sulphate.
(§2) Proteins were fractionated by SDS-PAGE with an 10% acrylamide separation gel, and the separated proteins were transferred to nitrocellulose, and processed as described previously (43, 44). Briefly, membranes were incubated in 20 mM Tris-HCl, pH 7.6, 137 mM NaCl, 0.2% v/v Tween-20 (Tris/NaCl/Tween-20) with 5% w/v non-fat dried milk for 1 h, washed in Tris/NaCl/Tween-20 (3×5 min), and incubated for 1 h with primary antibody in Tris/NaCl/Tween-20 containing 1% milk at room temperature for non phospho-specific antibodies and overnight at 4° C. for phospho-specific antibodies. The following dilutions were used for individual antibodies against different proteins: p42/44^MAPK (1:1600); phosphop-42/44^MAPK (1:1000); phosphop-46/54^JNK (1:1000); phospho-p38^MAPK (1:1600); phospho-MEK-1/2 (1:1000); MKP-1 (1:1500). After further washing in Tris/NaCl/Tween-20, membranes were incubated for 1 h with horseradish peroxidase-linked anti-IgG secondary antibody (Bio-Rad, diluted 1:5000), and immunoreactive proteins were detected by ECL as described by the supplier. Quantitative analyses of protein levels were performed by densitometric scanning of the autoradiograms, and are representative of 3 or more independent experiments.
(§3) HepG2 cells were incubated with SB202190, and the activity of p42/44^MAPK and p46/54^JNK was determined by immunoblot analysis with antibodies that recognized the activated phosphorylated forms of these kinases in cell extracts obtained at different times.

p46/54^JNK [2] = details: even at higher concentrations (100 μM); cited from earlier work
p42/44^MAPK [3] = test: Western blotting of phospho-p42/44MAPK in HeLa cells; format: cell-based; details: SB202190 (2.5 μg/ml) in 0.5% FBS
Description: as §2

p42/44^MAPK [4] = details: even at higher concentrations (100 μM); cited from earlier work
MEK-1/2 = test: Immunoblot of phospho-MEK-1/2 in HepG2 cells; format: cell-based, human; details: SB202190 2.5 μM
Description: as §1
HepG2 cells were cultured in the absence or presence of 1 μM staurosporine or 5 μM PD98059 for 30 min. SB202190 (2.5 μM) was then added to the cells for 4 h, cell lysate was subjected to immunoblotting to measure the phosphorylation levels of p42/44^MAPK and MEK-1/2. […]
(§4) Proteins were fractionated by SDS-PAGE with an 10% acrylamide separation gel, and the separated proteins were transferred to nitrocellulose, and processed as described previously (43, 44). […] After further washing in Tris/NaCl/Tween-20, membranes were incubated for 1 h with horseradish peroxidase-linked anti-IgG secondary antibody (Bio-Rad, diluted 1:5000), and immunoreactive proteins were detected by ECL as described by the supplier. Quantitative analyses of protein levels were performed by densitometric scanning of the autoradiograms, and are representative of 3 or more independent experiments.

LDL receptor expression = test: Northern blotting of LDL receptor mRNA in HeLa cells; format: cell-based; details: SB202190 (2.5 μM) 4 h
Description: PD98059 was added 30 min prior to addition of SB202190. After the indicated times, total RNA was isolated and subjected to Northern blotting. […] Total RNA was isolated using TRIzol, and Northern blotting was done essentially as described earlier (43, 44). Briefly, 20 μg total cellular RNA was fractionated on 1% formaldehyde agarose gel and transferred to Zeta Probe membrane by capillary blotting. RNA blots were hybridized with LDL receptor and squalene synthase specific single-stranded M13 probes labeled with [α-^32P ]dCTP. Hybridized filters were washed and exposed to Kodak X-ray film. The relative intensities of specific bands were determined densitometrically within the linear range of the film on a model 300A laser densitometer (Molecular […], Calif.) with Image Quant software. LDL receptor mRNA was normalized to squalene synthase (SS) (included in this study) or to α-actin (data not shown) mRNA level, and data for each point were plotted as the percentage of LDL receptor mRNA as compared to controls.

squalene synthase (SS) = test: Northern blotting of squalene synthase (SS) mRNA in HepG2 cells; format: cell-based, human; details: SB202190 2.5 μM
Description: 5×10^5 cells were plated on day 0. On day 2, cells were refed with fresh medium. On day. 4, cells were either left untreated (0) or treated for the indicated times with SB202190 (2.5 μM) in medium containing 0.5% FBS. Total RNA was isolated and subjected to Northern blotting to determine amounts of LDL receptor, squalene synthase (SS) genes, and actin mRNAs. Autoradiographs were quantitated densitometrically. LDL receptor mRNA levels were normalized to actin mRNA levels. In the bottom panel, results are expressed as the fold induction by SB 202190 as compared with uninduced cells (set at 1). Values obtained are the averages of three separate experiments, with the standard deviations shown. […]
Total RNA was isolated using TRIzol, and Northern blotting was done essentially as described earlier (43, 44). […] The relative intensities of specific bands were determined densitometrically within the linear range of the film on a model 300A laser densitometer (Molecular Dyanamics, Calif.) with Image Quant software. […]

[5] = system: p38^MAPK α- and β-isoforms; details: cited from earlier work
p46/54^JNK [6] = test: Immunoblot of phospho-p46/54JNK in HepG2 cells; format: cell-based, human; details: SB202190 2.5 μM
Description: as §1, with “MKP-1. […]” for “MKP-1.”
as §4, §3

Oc1ccc(-c2nc(-c3ccc(F)cc3)c(-c3ccncc3)[nH]2)cc1 [SB202190, 4-(4-Fluorophenyl)-2-(4-hydroxyphenyl)-5-(4-pyridyl) 1H-imidazole]
activation of p42/44MAPK (phosphorylation) (p42/44^MAPK [1]): delayed and prolonged activation | effect on p42/44MAPK protein levels (p42/44^MAPK [1]): no effect on p42/44^MAPK protein levels | time of maximal p42/44MAPK activation after stimulation (p42/44^MAPK [1]): 4 to 8 h | time of weak p42/44MAPK activation after treatment (p42/44^MAPK [1]): 1 h | time until which activated p42/44MAPK remained elevated (p42/44^MAPK [1]; 24 hours was maximum time point measured): ≥ 24 h | effect on p46/54JNK (p46/54^JNK [2]): without effect | p42/44MAPK activity in HeLa cells (p42/44^MAPK [3]): induced p42/44^MAPK activity | effect on p42/44MAPK (p42/44^MAPK [4]): without effect | kinetics of MEK-1/2 phosphorylation (MEK-1/2): paralleled the appearance of p42/44^MAPK | LDL receptor expression in HeLa cells (LDL receptor expression): caused a increase in LDL receptor expression | effect on expression of actin gene or sterol-sensitive gene SS (squalene synthase (SS)): without significantly affecting expression | inhibition of p38MAPK α- and β-isoforms [5]: selectively inhibit both p38^MAPK α- and β-isoforms; also recorded: inhibited | effect on activity or levels of p46/54JNK (p46/54^JNK [6]): little or no effect
